Reference: PubChem BioAssay AID651809 (Broad Institute, 2012)
Values joined by “and” are separate entries in the source; they are usually repeats but may differ in a detail not shown here. Equal entries are not always repeated. Active and inactive are the calls of the source. How the calls were made is not given here.

Tested on: not listed separately
Assay: Cholera quorum inducers, V. cholerae BH1578 lux reporter, luminescence, confirmatory dose response (AID 651809)
Conditions: V. cholerae BH1578 lux reporter, luminescence, 6 h; at 35 µM (top of the series)

| SMILES | activation |
| --- | --- |
| O=C(NC1CCCC1)Oc1ccc(-c2ccccc2)cc1 | -0.045% (inactive) |
| CCn1nnc(NCc2ccc(N3CCCC3)cc2)n1 | -0.042% (inactive) and -0.061% (inactive) |
| O=C(Cc1ccc(-c2ccccc2)cc1)NC1CCCCC1 | 10.4% (inactive) |
| CC(C)c1ccc(CNc2nn[nH]n2)cc1 | 0.032% (inactive) |
| CCN(Cc1ccc(N2CCCC2)cc1)c1nnnn1CC | 1.22% (inactive) |
| O=C(Cc1ccc(F)cc1)NC1CCCC1 | 0.012% (inactive) |
| O=C(Cc1ccc2ccccc2c1)NC1CCCC1 | 1.41% (inactive) |
| FC(F)(F)c1ccc(CNc2nn[nH]n2)cc1 | -0.017% (inactive) |
| CN1CCN(C(=O)Cc2ccc(-c3ccccc3)cc2)CC1 | -0.018% (inactive) |
| CC(C(=O)NC1CCCC1)c1ccc(-c2ccccc2)cc1 (stereo not drawn) | -0.069% (inactive) |
| O=C(Cc1cccc(C(F)(F)F)c1)NC1CCCC1 | 0.024% (inactive) |
| O=C(Cc1ccccc1)NC1CCCC1 | -0.05% (inactive) |
| O=C(Cc1ccc(Cl)cc1)NC1CCCC1 | 0.645% (inactive) |
| Cn1nnnc1NCc1ccccc1 | -0.011% (inactive) |
| O=C(Cc1ccccc1OC(F)(F)F)NC1CCCC1 | 0.011% (inactive) |
| Cc1ccc(CC(=O)NC2CCCC2)cc1 | 0.967% (inactive) |

| SMILES | activation |
| --- | --- |
| c1cc(N2CCCC2)ccc1CNc1nn[nH]n1 | -0.038% (inactive) |
| O=C(NCc1ccc(-c2ccccc2)cc1)C1CCCC1 | 0.158% (inactive) and 0.134% (inactive) |
| N#Cc1cccc(CC(=O)NC2CCCC2)c1 | -0.04% (inactive) |
| O=C(Cc1ccccn1)NC1CCCC1 | 0.07% (inactive) |
| O=C(Cc1ccncc1)NC1CCCC1 | 0.026% (inactive) |
| O=C(Cc1ccc(-c2ccncc2)cc1)NC1CCCC1 | 1.61% (inactive) |
| O=C(Cc1ccc(-c2ccccc2)cc1)N1CCOCC1 | 0.215% (inactive) |
| O=C(Nc1ccc(-c2ccccc2)cc1)NC1CCCC1 | 0.069% (inactive) |
| COc1ccccc1CC(=O)NC1CCCC1 | 0.627% (inactive) |
| O=C(Cc1cccnc1)NC1CCCC1 | -0.043% (inactive) |
| COc1ccc(CC(=O)NC2CCCC2)cc1 | 2.06% (inactive) |
| O=C(Cc1ccc(-c2ccccc2)cc1)Nc1ccccc1 | 0.038% (inactive) |
| CC(C)(C)OC(=O)N1CCC(NC(=O)Cc2ccc(-c3ccccc3)cc2)CC1 | -0.022% (inactive) |
| CCn1nnc(NCc2ccc(C(C)C)cc2)n1 | 0.061% (inactive) |
| O=C(Cc1cccc(-c2ccccc2)c1)NC1CCCC1 | 18% (inactive) |

Tested on: V. cholerae BH1578 lux reporter, luminescence, 6 h
Assay: as above
Conditions: not given

| SMILES | AC40 |
| --- | --- |
| CCn1nnnc1NCc1ccc(N2CCCC2)cc1 | 149 nM and < 135 nM |
| Cc1ccccc1CC(=O)NC1CCCC1 | 7560 nM |
| O=C(Cc1ccc(-c2ccccc2)cc1)NC1CCOCC1 | 5660 nM |
| CCC(C)NC(=O)Cc1ccc(-c2ccccc2)cc1 (stereo not drawn) | 5160 nM |
| CCn1nnnc1NCc1ccc(C(C)C)cc1 | 187 nM |
| CC(C)c1ccc(CNc2nnnn2C)cc1 | 4170 nM |
| CCNC(=O)Cc1ccc(-c2ccccc2)cc1 | > 35000 nM (inactive) |
| CCn1nnnc1NCc1ccc(C(F)(F)F)cc1 | 17800 nM |
| O=C(Nc1nnc(-c2ccc3c(c2)OCCO3)o1)C1CCCCC1 | 2290 nM |
| O=C(Cc1ccc(-c2ccccc2)cc1)NC1CCCC1 | 890 nM and 645 nM |
| CCC(CC)NC(=O)Cc1ccc(-c2ccccc2)cc1 | 4420 nM |
| O=C(Cc1ccc(-c2ccccn2)cc1)NC1CCCC1 | 10500 nM |
| Cc1ccc2cc3c(NC(=O)c4ccco4)nn(C)c3nc2c1 | 10400 nM |
| Cn1nnnc1NCc1ccc(N2CCCC2)cc1 | 1030 nM |
| CC(C)NC(=O)Cc1ccc(-c2ccccc2)cc1 | 1900 nM |
| CCCn1nnnc1NCc1ccc(C(C)C)cc1 | 529 nM |
| O=C(Cc1ccc(-c2ccccc2)cc1)NC1CCC1 | 499 nM |
